Assay: Evaluation of conversion rate to active form in buffer solution (Experimental Example 1)
Assay type: physicochemical
Conditions: for Production rate of Alvocidib / Residual rate: 37° C., 25 umol/L in buffer solution; for Stability in buffer solution at pH 5: pH 5, 37° C., up to 2 or 3 hours; for Conversion to Alvocidib at pH 7.4: pH 7.4, 37° C., up to 3 hours
Summary of the method: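 Conversion to Alvocidib was followed by HPLC over 3 hours at 37° C, with test compounds at 25 umol/L in 50 mM citrate or phosphate buffers spanning pH 5.0–7.4.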

Question: For `CN1CC[C@H](c2c(OC(=O)N(CCF)CC3CCCCN3)cc(O)c3c(=O)cc(-c4ccccc4Cl)oc23)[C@H](O)C1` (stereo partly drawn) [Example 11, 2-(2-chlorophenyl)-5-hydroxy-8-[(3S,4R)-3-hydroxy-1-methylpiperidin-4-yl]-4-oxo-4H-1-benzopyran-7-yl (2-fluoroethyl) [(piperidin-2-yl)methyl]carbamate], which “Production rate of Alvocidib” value (pH5.0, 0 hr) is on record?
Answer: 0.2%

Question: And the Residual rate (pH5.0, 0 hr)?
Answer: 83.2%

Question: What about the “Stability in buffer solution at pH 5” value of the same compound?
Answer: stable

Question: And the “Production rate of Alvocidib” value (pH5.0, 0.5 hr)?
Answer: 0.9%

Question: What about the Residual rate (pH5.0, 0.5 hr) of the same compound?
Answer: 82.7%

Question: What about the “Production rate of Alvocidib” value (pH5.0, 1 hr) of the same compound?
Answer: 1.8%

Question: What about the Residual rate (pH5.0, 1 hr) of the same compound?
Answer: 81.3%

Question: And the “Production rate of Alvocidib” value (pH5.0, 2 hr)?
Answer: 3.3%

Question: What about the Residual rate (pH5.0, 2 hr) of the same compound?
Answer: 80.5%

Question: And the “Production rate of Alvocidib” value (pH5.0, 3 hr)?
Answer: 4.8%

Question: What about the Residual rate (pH5.0, 3 hr) of the same compound?
Answer: 79.1%

Question: What about the “Production rate of Alvocidib” value (pH5.5, 0 hr) of the same compound?
Answer: 0.2%

Question: And the Residual rate (pH5.5, 0 hr)?
Answer: 83.6%

Question: And the “Production rate of Alvocidib” value (pH5.5, 0.5 hr)?
Answer: 2.5%

Question: What about the Residual rate (pH5.5, 0.5 hr) of the same compound?
Answer: 81.8%

Question: And the “Production rate of Alvocidib” value (pH5.5, 1 hr)?
Answer: 4.8%

Question: What about the Residual rate (pH5.5, 1 hr) of the same compound?
Answer: 79.2%

Question: What about the “Production rate of Alvocidib” value (pH5.5, 2 hr) of the same compound?
Answer: 9.4%

Question: And the Residual rate (pH5.5, 2 hr)?
Answer: 75.0%

Question: What about the “Production rate of Alvocidib” value (pH5.5, 3 hr) of the same compound?
Answer: 14.0%

Question: And the Residual rate (pH5.5, 3 hr)?
Answer: 70.2%

Question: What about the “Production rate of Alvocidib” value (pH6.0, 0 hr) of the same compound?
Answer: 0.3%

Question: What about the Residual rate (pH6.0, 0 hr) of the same compound?
Answer: 83.7%

Question: What about the “Production rate of Alvocidib” value (pH6.0, 0.5 hr) of the same compound?
Answer: 8.5%

Question: And the Residual rate (pH6.0, 0.5 hr)?
Answer: 76.0%

Question: What about the “Production rate of Alvocidib” value (pH6.0, 1 hr) of the same compound?
Answer: 16.9%

Question: What about the Residual rate (pH6.0, 1 hr) of the same compound?
Answer: 66.6%

Question: What about the “Production rate of Alvocidib” value (pH6.0, 2 hr) of the same compound?
Answer: 32.6%

Question: What about the Residual rate (pH6.0, 2 hr) of the same compound?
Answer: 49.8%

Question: What about the “Production rate of Alvocidib” value (pH6.0, 3 hr) of the same compound?
Answer: 39.4%

Question: And the Residual rate (pH6.0, 3 hr)?
Answer: 44.8%

Question: And the “Production rate of Alvocidib” value (pH6.5, 0 hr)?
Answer: 0.8%

Question: What about the Residual rate (pH6.5, 0 hr) of the same compound?
Answer: 81.4%

Question: What about the “Production rate of Alvocidib” value (pH6.5, 0.5 hr) of the same compound?
Answer: 23.6%

Question: What about the Residual rate (pH6.5, 0.5 hr) of the same compound?
Answer: 60.4%

Question: What about the “Production rate of Alvocidib” value (pH6.5, 1 hr) of the same compound?
Answer: 46.5%

Question: What about the Residual rate (pH6.5, 1 hr) of the same compound?
Answer: 35.6%

Question: And the “Production rate of Alvocidib” value (pH6.5, 2 hr)?
Answer: 60.2%

Question: What about the Residual rate (pH6.5, 2 hr) of the same compound?
Answer: 23.7%

Question: And the “Production rate of Alvocidib” value (pH6.5, 3 hr)?
Answer: 62.7%

Question: What about the Residual rate (pH6.5, 3 hr) of the same compound?
Answer: 21.4%

Question: What about the “Production rate of Alvocidib” value (pH7.0, 0 hr) of the same compound?
Answer: 2.1%

Question: And the Residual rate (pH7.0, 0 hr)?
Answer: 80.0%

Question: And the “Production rate of Alvocidib” value (pH7.0, 0.5 hr)?
Answer: 53.4%

Question: And the Residual rate (pH7.0, 0.5 hr)?
Answer: 30.1%

Question: And the “Production rate of Alvocidib” value (pH7.0, 1 hr)?
Answer: 62.1%

Question: What about the Residual rate (pH7.0, 1 hr) of the same compound?
Answer: 22.0%

Question: And the “Production rate of Alvocidib” value (pH7.0, 2 hr)?
Answer: 67.0%

Question: What about the Residual rate (pH7.0, 2 hr) of the same compound?
Answer: 17.1%

Question: What about the “Production rate of Alvocidib” value (pH7.0, 3 hr) of the same compound?
Answer: 71.6%

Question: And the Residual rate (pH7.0, 3 hr)?
Answer: 12.4%

Question: And the “Production rate of Alvocidib” value (pH7.4, 0 hr)?
Answer: 4.6%

Question: And the Residual rate (pH7.4, 0 hr)?
Answer: 79.7%

Question: What about the “Conversion to Alvocidib at pH 7.4” value of the same compound?
Answer: rapidly converted to Alvocidib

Question: And the “Production rate of Alvocidib” value (pH7.4, 0.5 hr)?
Answer: 68.3%

Question: And the Residual rate (pH7.4, 0.5 hr)?
Answer: 16.2%

Question: What about the “Production rate of Alvocidib” value (pH7.4, 1 hr) of the same compound?
Answer: 67.0%

Question: What about the Residual rate (pH7.4, 1 hr) of the same compound?
Answer: 16.7%

Question: And the “Production rate of Alvocidib” value (pH7.4, 2 hr)?
Answer: 67.9%

Question: What about the Residual rate (pH7.4, 2 hr) of the same compound?
Answer: 16.2%

Question: And the “Production rate of Alvocidib” value (pH7.4, 3 hr)?
Answer: 67.3%

Question: What about the Residual rate (pH7.4, 3 hr) of the same compound?
Answer: 15.9%

Question: Which “Production rate of Alvocidib” value (pH5.0, 0 hr) does the source give for `COCCN(CC1CCCCN1)C(=O)Oc1cc(O)c2c(=O)cc(-c3ccccc3Cl)oc2c1[C@H]1CCN(C)C[C@H]1O` (stereo partly drawn) [Example 12, 2-(2-chlorophenyl)-5-hydroxy-8-[(3S,4R)-3-hydroxy-1-methylpiperidin-4-yl]-4-oxo-4H-1-benzopyran-7-yl (2-methoxyethyl) [(piperidin-2-yl)methyl]carbamate] here?
Answer: 0.5%

Question: And the Residual rate (pH5.0, 0 hr)?
Answer: 80.7%

Question: What about the “Stability in buffer solution at pH 5” value of the same compound?
Answer: stable

Question: And the “Production rate of Alvocidib” value (pH5.0, 0.5 hr)?
Answer: 1.1%

Question: And the Residual rate (pH5.0, 0.5 hr)?
Answer: 80.3%

Question: And the “Production rate of Alvocidib” value (pH5.0, 1 hr)?
Answer: 1.5%

Question: And the Residual rate (pH5.0, 1 hr)?
Answer: 79.6%

Question: What about the “Production rate of Alvocidib” value (pH5.0, 2 hr) of the same compound?
Answer: 2.3%

Question: And the Residual rate (pH5.0, 2 hr)?
Answer: 79.6%

Question: What about the “Production rate of Alvocidib” value (pH5.0, 3 hr) of the same compound?
Answer: 3.9%

Question: And the Residual rate (pH5.0, 3 hr)?
Answer: 77.3%

Question: What about the “Production rate of Alvocidib” value (pH5.5, 0 hr) of the same compound?
Answer: 0.5%

Question: And the Residual rate (pH5.5, 0 hr)?
Answer: 80.6%

Question: What about the “Production rate of Alvocidib” value (pH5.5, 0.5 hr) of the same compound?
Answer: 1.9%

Question: And the Residual rate (pH5.5, 0.5 hr)?
Answer: 79.9%

Question: What about the “Production rate of Alvocidib” value (pH5.5, 1 hr) of the same compound?
Answer: 3.8%

Question: What about the Residual rate (pH5.5, 1 hr) of the same compound?
Answer: 77.5%

Question: What about the “Production rate of Alvocidib” value (pH5.5, 2 hr) of the same compound?
Answer: 6.9%

Question: What about the Residual rate (pH5.5, 2 hr) of the same compound?
Answer: 73.8%

Question: And the “Production rate of Alvocidib” value (pH5.5, 3 hr)?
Answer: 9.8%

Question: And the Residual rate (pH5.5, 3 hr)?
Answer: 71.2%

Question: What about the “Production rate of Alvocidib” value (pH6.0, 0 hr) of the same compound?
Answer: 0.6%

Question: And the Residual rate (pH6.0, 0 hr)?
Answer: 80.8%

Question: What about the “Production rate of Alvocidib” value (pH6.0, 0.5 hr) of the same compound?
Answer: 6.2%

Question: And the Residual rate (pH6.0, 0.5 hr)?
Answer: 75.4%

Question: And the “Production rate of Alvocidib” value (pH6.0, 1 hr)?
Answer: 11.0%

Question: And the Residual rate (pH6.0, 1 hr)?
Answer: 70.3%

Question: What about the “Production rate of Alvocidib” value (pH6.0, 2 hr) of the same compound?
Answer: 22.5%

Question: What about the Residual rate (pH6.0, 2 hr) of the same compound?
Answer: 56.2%

Question: And the “Production rate of Alvocidib” value (pH6.0, 3 hr)?
Answer: 26.9%

Question: What about the Residual rate (pH6.0, 3 hr) of the same compound?
Answer: 54.0%

Question: And the “Production rate of Alvocidib” value (pH6.5, 0 hr)?
Answer: 1.0%

Question: And the Residual rate (pH6.5, 0 hr)?
Answer: 80.4%

Question: What about the “Production rate of Alvocidib” value (pH6.5, 0.5 hr) of the same compound?
Answer: 16.6%

Question: And the Residual rate (pH6.5, 0.5 hr)?
Answer: 63.8%

Question: And the “Production rate of Alvocidib” value (pH6.5, 1 hr)?
Answer: 31.8%

Question: What about the Residual rate (pH6.5, 1 hr) of the same compound?
Answer: 39.4%

Question: And the “Production rate of Alvocidib” value (pH6.5, 2 hr)?
Answer: 40.5%

Question: What about the Residual rate (pH6.5, 2 hr) of the same compound?
Answer: 26.2%

Question: And the “Production rate of Alvocidib” value (pH6.5, 3 hr)?
Answer: 52.2%

Question: And the Residual rate (pH6.5, 3 hr)?
Answer: 13.4%

Question: And the “Production rate of Alvocidib” value (pH7.0, 0 hr)?
Answer: 1.7%

Question: And the Residual rate (pH7.0, 0 hr)?
Answer: 80.2%

Question: And the “Production rate of Alvocidib” value (pH7.0, 0.5 hr)?
Answer: 33.8%

Question: And the Residual rate (pH7.0, 0.5 hr)?
Answer: 35.8%

Question: And the “Production rate of Alvocidib” value (pH7.0, 1 hr)?
Answer: 51.2%

Question: What about the Residual rate (pH7.0, 1 hr) of the same compound?
Answer: 15.4%

Question: And the “Production rate of Alvocidib” value (pH7.0, 2 hr)?
Answer: 60.2%

Question: And the Residual rate (pH7.0, 2 hr)?
Answer: 0.0%

Question: And the “Production rate of Alvocidib” value (pH7.0, 3 hr)?
Answer: 62.7%

Question: And the Residual rate (pH7.0, 3 hr)?
Answer: 0.0%

Question: And the “Production rate of Alvocidib” value (pH7.4, 0 hr)?
Answer: 3.9%

Question: What about the Residual rate (pH7.4, 0 hr) of the same compound?
Answer: 77.3%

Question: And the “Conversion to Alvocidib at pH 7.4” value?
Answer: rapidly converted to Alvocidib

Question: And the “Production rate of Alvocidib” value (pH7.4, 0.5 hr)?
Answer: 51.0%

Question: What about the Residual rate (pH7.4, 0.5 hr) of the same compound?
Answer: 10.8%

Question: What about the “Production rate of Alvocidib” value (pH7.4, 1 hr) of the same compound?
Answer: 65.9%

Question: What about the Residual rate (pH7.4, 1 hr) of the same compound?
Answer: 0.0%

Question: And the “Production rate of Alvocidib” value (pH7.4, 2 hr)?
Answer: 67.3%

Question: And the Residual rate (pH7.4, 2 hr)?
Answer: 0.0%

Question: And the “Production rate of Alvocidib” value (pH7.4, 3 hr)?
Answer: 63.6%

Question: And the Residual rate (pH7.4, 3 hr)?
Answer: 0.0%

From US12617779B2, “Self degradation-type CDK9 inhibitor prodrug and liposome encapsulating same” (Sumitomo Pharma Co., Ltd., priority 2021, dated 2026)
